Experimental data published in patent US20150111835A1, “MODIFIED PEPTIDES AND THEIR USE FOR TREATING AUTOIMMUNE DISEASES” (CENTRE NATIONAL DE LA RECHERECHE SCIENTIFIQUE, priority 2011, published 2015).
Where a SMILES comes first, the peptide text is derived from it. [ ]: non-standard residue; d: D form. Met(O) = CS(=O)CC[C@H](N)C(=O)O; pS = N[C@@H](COP(=O)(O)O)C(=O)O

How the values were obtained:
HSC70 protein = target: T1, HSC70 protein (Bos taurus, UniProt P19120); assay: BIAcore binding of peptides to immobilized HSC70; parameters: species or system bovine; details: for Rmax / KA / Kd / kd: 25° C., 1:1 Langmuir model; for Rmax: global fit; for KA / Kd / kd: same value given at each analyte concentration
T1 construct: purchased Stressgen
T1 sequence (P19120 whole entry): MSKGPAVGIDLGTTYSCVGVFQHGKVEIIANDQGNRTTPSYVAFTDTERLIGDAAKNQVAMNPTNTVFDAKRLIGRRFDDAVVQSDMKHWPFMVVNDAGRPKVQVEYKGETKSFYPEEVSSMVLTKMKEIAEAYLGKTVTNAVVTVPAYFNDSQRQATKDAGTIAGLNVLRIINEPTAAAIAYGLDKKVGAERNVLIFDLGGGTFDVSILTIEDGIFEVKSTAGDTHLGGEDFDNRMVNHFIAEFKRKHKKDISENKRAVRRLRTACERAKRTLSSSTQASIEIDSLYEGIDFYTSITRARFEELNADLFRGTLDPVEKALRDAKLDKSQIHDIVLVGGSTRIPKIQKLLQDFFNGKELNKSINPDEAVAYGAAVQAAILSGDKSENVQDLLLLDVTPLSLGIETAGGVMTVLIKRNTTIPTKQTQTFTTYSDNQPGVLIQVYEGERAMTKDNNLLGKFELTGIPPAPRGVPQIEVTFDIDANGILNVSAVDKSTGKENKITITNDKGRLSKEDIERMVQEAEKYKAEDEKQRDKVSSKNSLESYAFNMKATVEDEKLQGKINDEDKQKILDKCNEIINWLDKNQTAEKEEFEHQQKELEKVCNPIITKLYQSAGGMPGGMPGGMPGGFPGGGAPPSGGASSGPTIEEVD
Protocol: BIAcore 3000 system (Biacore AB) was used to evaluate the binding of P140 peptides to HSC70 protein (Page et al., 2009, and 2011). Sensor chip CMS, surfactant P20, amine coupling kit containing N-hydroxysuccinimide (NHS) and N-ethyl-N′-dimethylaminopropyl carbodiimide (EDC), 2-(2-pyridinyldithio)ethaneamine (PDEA) and ethanolamine were from Biacore AB. Biosensor assays were performed with HBS-EP buffer as running buffer (10 mM HEPES, 150 mM NaCl, 3 mM EDTA, 0.005% surfactant P20, pH 7.4). The compounds were diluted in the running buffer. The sensor chip surface was regenerated after each experiment by injecting 10 μL of 10 mM HCl. Recombinant bovine HSC70 (Stressgen) was immobilized on flow cells of a CMS sensor chip through its thiol groups using 35 μL PDEA in 50 mM borate buffer, pH 8.3 on the NHS/EDC-activated matrix. Then, 35 μL of HSC70 (100 μg/mL in formate buffer, pH 4.3) were injected until a response of 13,000 response units (RU) corresponding to 13 ng/mm^2 of HSC70 was immobilized. Twenty μL of a 50 mM cysteine/1 M NaCl solution was used to saturate unoccupied sites on the chip. The direct binding measurement of P140 peptides to HSC70 was carried out at 25° C. with a constant flow rate of 20 μL/min. P140 peptide and analogues were injected in the flux at different concentrations for 3 min, followed by a dissociation phase of 3 min. The kinetic parameters were calculated using the BIAeval 3.1 software on a personal computer. Analysis was performed using the simple 1:1 Langmuir binding model. The specific binding profiles were obtained after subtracting the response signal from the control empty channel and from blank-buffer injection. The fitting to each model was judged by the χ^2 value and randomness of residue distribution compared to the theoretical model.

MRL/lpr mice [1] = assay: Survival analysis in MRL/lpr lupus mice; type: in vivo, mouse; details: female MRL/lpr mice, intravenous, from 5 weeks of age; NaCl control = 25 weeks
Protocol: (§1) Statistical tests were performed using GraphPad Prism version 5.0. The two-way ANOVA test was used to analyze statistical significance of proteinuria differences between control and peptide-treated groups of mice. Survival of control and P140 analogue-treated female MRL/lpr mice was analyzed by the Kaplan-Meier method, and the significance of differences was determined by the log-rank test. For the other variables, statistical significance was assessed using the Student's t-test. p values less than 0.05 were considered significant.
It has been determined that this mouse strain carries a mutation in the fas gene. Also, the MRL/lpr is a useful model to study behavioural and cognitive deficits found in autoimmune diseases and the efficacy of immunosuppressive agents [Monneaux et al., 2003, Eur. J. Immunol. 33,287-296].
Five-week-old female MRL/lpr mice received P140 or peptide P140(MO) intravenously as described (Monneaux et al., 2003, Eur. J. Immunol. 33,287-296). All experimental protocols were carried out with the approval of the local Institutional Animal Care and Use Committee (CREMEAS). As control, mice were injected with NaCl.
Twenty mice were used for each peptide or NaCl.

[2] = Stability of the peptides at 37° C. in 10% (v/v) mannitol solution, HPLC peak area of intact peptide; type: physicochemical; details: for 95% of stability (predicted): time to 95% stability from linear equation; for Linear equation of stability (%) versus days: slope: y = stability %, x = days; for Stability (%): 10% mannitol
Protocol: The stability of the peptide SEQ ID NO: 2 in which the serine at position 10 is phosphorylated and the methionine at position 4 is oxidized (P140(MO)), and the peptide SEQ ID NO: 1 in which the serine at position 10 is phosphorylated (P140) was measured at 37° C., in a solution of 10% (v/v) mannitol. For each peptide, 3 concentrations have been tested: 200, 100 and 50 μg/mL.
At the indicated time, the integrity of P140 and P140(MO) peptides was measured in saline by high-performance liquid chromatography from the area of the peak corresponding to the intact peptide.
Stability is measured by using the HPLC peak surface.

MRL/lpr mice [3] = assay: Proteinuria analysis in MRL/lpr mice (Albustix); type: in vivo, mouse; details: fresh urine, Albustix score over time (FIG. 3)
Protocol: as §1
Proteinuria of the above mice was measured in fresh urine using Albustix (Bayer Diagnostics) and was semi-quantitatively estimated according to a […] recommended by the manufacturer (no proteinuria=0; traces=1; 1+=2; 2+=3; 3+=4; 4+=5).

MRL/lpr mice [4] = assay: Cellularity analysis (peripheral blood leucocytes) in MRL/lpr mice; type: in vivo, mouse; details: 100 μg/100 μL single injection, peripheral blood 5 days after, efficacy at least similar to P140
Protocol: MRL/lpr mice were injected with 100 μg/100 μL of P140 or P140(MO) and cellularity (peripheral blood) was studied 5 days after this unique injection. The count includes all the leucocytes. In view of the low number of tested mice, a non parametric statistical test has been realised Mann-Whitney).

| Structure (SMILES) | Rmax (HSC70 protein; BIAcore) [RU] | KA (HSC70 protein; BIAcore) [M⁻¹] | Kd (HSC70 protein; BIAcore) [µM] | kd (HSC70 protein; BIAcore) [s⁻¹] | Req (HSC70 protein; peptide 1.56 μM) [RU] | kobs (HSC70 protein; peptide 1.56 μM) [s⁻¹] | Req (HSC70 protein; peptide 3.12 μM) [RU] | kobs (HSC70 protein; peptide 3.12 μM) [s⁻¹] | Req (HSC70 protein; peptide 6.25 μM) [RU] | kobs (HSC70 protein; peptide 6.25 μM) [s⁻¹] | Req (HSC70 protein; peptide 12.5 μM) [RU] | kobs (HSC70 protein; peptide 12.5 μM) [s⁻¹] | Req (HSC70 protein; peptide 25 μM) [RU] | kobs (HSC70 protein; peptide 25 μM) [s⁻¹] | Median survival (MRL/lpr mice [1]) [weeks] | 95% of stability (predicted) ([2]; 50 μg/mL, 37° C.) | Linear equation of stability (%) versus days: slope ([2]; 50 μg/mL, 37° C.) | Stability (%) ([2]; 50 μg/mL, day 0, 37° C.) | Stability (%) ([2]; 50 μg/mL, day 20, 37° C.) | Stability (%) ([2]; 50 μg/mL, day 40, 37° C.) | other results |
| --- | --- | --- | --- | --- | --- | --- | --- | --- | --- | --- | --- | --- | --- | --- | --- | --- | --- | --- | --- | --- | --- |
| CC[C@H](C)[C@H](NC(=O)[C@H](Cc1ccccc1)NC(=O)[C@H](C)NC(=O)[C@H](Cc1ccc(O)cc1)NC(=O)CNC(=O)[C@H](CCCNC(=N)N)NC(=O)[C@@H]1CCCN1C(=O)[C@H](CCCCN)NC(=O)CNC(=O)[C@H](COP(=O)(O)O)NC(=O)[C@H](CCCNC(=N)N)NC(=O)[C@H](CCCCN)NC(=O)[C@H](CO)NC(=O)[C@H](Cc1ccc(O)cc1)NC(=O)[C@@H](NC(=O)[C@H](CCSC)NC(=O)[C@H](Cc1c[nH]cn1)NC(=O)[C@@H](NC(=O)[C@@H](N)CCCNC(=N)N)[C@@H](C)CC)C(C)C)C(=O)N[C@@H](CCC(=O)O)C(=O)N[C@@H](Cc1ccc(O)cc1)C(=O)O [Compound P140] (H-RIHMVYSKR[pS]GKPRGYAFIEY-OH) | 83.3 | 144000 | 6.94 | 0.00312 | 15.3 | 0.00382 | 25.8 | 0.00452 | 39.5 | 0.00593 | 53.6 | 0.00874 | 65.2 | 0.0144 | 29 | 1 months | y = −0.099x + | 100 | 95.5 | 93.2 | Stability (%) ([2]; 50 μg/mL, day 60, 37° C.): 91.5%; Stability (%) ([2]; 50 μg/mL, day 80, 37° C.): 90.3%; Stability (%) ([2]; 50 μg/mL, day 100, 37° C.): 89.6%; 95% of stability (predicted) ([2]; 100 μg/mL, 37° C.): 2 months; Linear equation of stability (%) versus days: slope ([2]; 100 μg/mL, 37° C.): y = −0.0612x +; Stability (%) ([2]; 100 μg/mL, day 0, 37° C.): 100%; Stability (%) ([2]; 100 μg/mL, day 20, 37° C.): 97.5%; Stability (%) ([2]; 100 μg/mL, day 40, 37° C.): 96.2%; Stability (%) ([2]; 100 μg/mL, day 60, 37° C.): 95.5%; Stability (%) ([2]; 100 μg/mL, day 80, 37° C.): 94.5%; Stability (%) ([2]; 100 μg/mL, day 100, 37° C.): 93.4%; 95% of stability (predicted) ([2]; 200 μg/mL, 37° C.): 6 months; Linear equation of stability (%) versus days: slope ([2]; 200 μg/mL, 37° C.): y = −0.0238x +; Stability (%) ([2]; 200 μg/mL, day 0, 37° C.): 100%; Stability (%) ([2]; 200 μg/mL, day 20, 37° C.): 98.7%; Stability (%) ([2]; 200 μg/mL, day 40, 37° C.): 98.5%; Stability (%) ([2]; 200 μg/mL, day 60, 37° C.): 97.9%; Stability (%) ([2]; 200 μg/mL, day 80, 37° C.): 97.6%; Stability (%) ([2]; 200 μg/mL, day 100, 37° C.): 97.4% |
| CC[C@H](C)[C@H](NC(=O)[C@H](Cc1ccccc1)NC(=O)[C@H](C)NC(=O)[C@H](Cc1ccc(O)cc1)NC(=O)CNC(=O)[C@H](CCCNC(=N)N)NC(=O)[C@@H]1CCCN1C(=O)[C@H](CCCCN)NC(=O)CNC(=O)[C@H](COP(=O)(O)O)NC(=O)[C@H](CCCNC(=N)N)NC(=O)[C@H](CCCCN)NC(=O)[C@H](CO)NC(=O)[C@H](Cc1ccc(O)cc1)NC(=O)[C@@H](NC(=O)[C@H](CC[S+](C)[O-])NC(=O)[C@H](Cc1c[nH]cn1)NC(=O)[C@@H](NC(=O)[C@@H](N)CCCNC(=N)N)[C@@H](C)CC)C(C)C)C(=O)N[C@@H](CCC(=O)O)C(=O)N[C@@H](Cc1ccc(O)cc1)C(=O)O (some centres unmarked) [P140(MO), RIHM(O)VYSKRS(PO3H2)GKPRGYAFIEY] (H-RIH[Met(O)]VYSKR[pS]GKPRGYAFIEY-OH) | 39 | 524000 | 1.91 | 0.0022 | 17.6 | 0.004 | 24.2 | 0.0058 | 29.9 | 0.0094 | 33.9 | 0.0166 | 36.3 | 0.031 | > 40 | 2 years | y = −0.0064x + | 100 | 100 | 100 | Affinity for HSC70 compared with P140 (non-oxidized counterpart) (HSC70 protein; BIAcore): not statistically different; Proteinuria compared to untreated mice (MRL/lpr mice [3]): less important and appears lately; Peripheral hypercellularity (MRL/lpr mice [4]): able to decrease peripheral hypercellularity; Stability (%) ([2]; 50 μg/mL, day 100, 37° C.): 99.4%; Linear equation of stability (%) versus days: slope ([2]; 100 μg/mL, 37° C.): y = −0.0064x +; Stability (%) ([2]; 100 μg/mL, day 0, 37° C.): 100%; Stability (%) ([2]; 100 μg/mL, day 20, 37° C.): 99.1%; Stability (%) ([2]; 100 μg/mL, day 40, 37° C.): 99.5%; Stability (%) ([2]; 100 μg/mL, day 100, 37° C.): 99.1%; 95% of stability (predicted) ([2]; 200 μg/mL, 37° C.): ∞; Stability (%) ([2]; 200 μg/mL, day 0, 37° C.): 100%; Stability (%) ([2]; 200 μg/mL, day 20, 37° C.): 100%; Stability (%) ([2]; 200 μg/mL, day 40, 37° C.): 100%; Stability (%) ([2]; 200 μg/mL, day 100, 37° C.): 100%; Stability over 100 days (in words) ([2]; all tested concentrations (50 to 200 μg/ml), 37° C.): stable |
